The assay concerns the target T1, Malonyl-CoA decarboxylase, mitochondrial (Homo sapiens, UniProt O95822).
T1 sequence (O95822 whole entry): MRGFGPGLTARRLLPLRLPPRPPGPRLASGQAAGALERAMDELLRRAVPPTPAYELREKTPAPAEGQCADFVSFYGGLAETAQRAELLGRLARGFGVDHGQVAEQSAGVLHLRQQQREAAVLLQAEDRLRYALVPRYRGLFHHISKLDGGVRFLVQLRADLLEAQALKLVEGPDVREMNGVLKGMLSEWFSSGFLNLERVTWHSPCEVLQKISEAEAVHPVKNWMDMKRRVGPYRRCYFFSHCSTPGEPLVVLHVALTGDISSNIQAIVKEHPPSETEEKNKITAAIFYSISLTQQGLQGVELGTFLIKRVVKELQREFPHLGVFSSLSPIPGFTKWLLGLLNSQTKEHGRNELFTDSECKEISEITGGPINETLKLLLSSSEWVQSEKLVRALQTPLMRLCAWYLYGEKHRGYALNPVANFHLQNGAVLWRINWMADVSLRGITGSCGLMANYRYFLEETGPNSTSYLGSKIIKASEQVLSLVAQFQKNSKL

For orientation: IC50 means the concentration needed to halve the response being measured. Lower therefore signals greater potency. Compound `CC(C)C(=O)N(CC1CCCO1)c1ncc(C(O)(C(F)(F)F)C(F)(F)F)s1` (stereo unspecified) came in with a 50% inhibitory concentration (IC50) of 1580 nM.

The values are drawn from ChEMBL document CHEMBL1138101, “Heteroaryl substituted bis-trifluoromethyl carbinols as malonyl-CoA decarboxylase inhibitors” (Bioorg Med Chem Lett, 2006).
